US9766197B2, “Methods for generating pH/ionic concentration gradient near electrode surfaces for modulating biomolecular interactions, and bubble detection using electrodes” (Robert Bosch GmbH, priority 2014, dated 2017)
Each block holds one molecule with its values, some of them ahead of it.

What was measured:
[1] = Electrochemical modulation of pH at ITO working electrode monitored by GFP fluorescence intensity; format: physicochemical
From the text: After current was turned off, the pH recovered to neutral value within 50 seconds.
Electrode material used: The electrode material was indium tin oxide. The fluorescent protein used is GFP immobilized on a glass substrate which includes an array of electrodes. The GFP is applied as spots, each spot covers an area that overlaps with one electrode and an area that is not overlapping with an electrode.
The pH change at the surface of ITO working electrode is generated via current-driven oxidation of a redox active molecule, 2-methyl-1,4-dihydroquinone, in diluted phosphate buffer (pH=7.4) containing 0.1M Na2SO4. […] FIG. 10 is used as calibration curve to assess the pH values.

[2] = Electro-oxidation of ascorbic acid at indium tin oxide electrode (cyclic voltammetry); format: physicochemical; details: Indium tin oxide vs Ag/AgCl reference electrode
From the text: FIG. 7B: Cyclic voltammetric study of the oxidation of Ascorbic acid test in ITO electrodes.
(§1) Electrode material used: The electrode material was indium tin oxide. This is a semiconducting electrode surface with very large potential window in an aqueous solution.
Oxidation of ascorbic acid at the electrode surfaces produced H^+ ions and changed the electrode surface pH to a more acidic state: AH2→A+2H^++2e^−, where AH2 is ascorbic acid ([…]) (as shown in FIG. 5). The electrode potential at which it oxidizes was less than 0.5V for Indium tin oxide material vs Ag/AgCl reference electrode (as shown in FIG. 7). This potential was less than the voltages needed for the oxygen evolution reaction in aqueous solution. The ascorbic acid also acted as a sacrificial species to prevent electrochemical degradation of the surface chemistry.

[3] = Electro-reduction of benzoquinone into hydroquinone to produce OH- ions; format: physicochemical
From the text: as §1
Reduction of benzoquinone (C6H4O2) into Hydroquinone (C6H6O2) can produce OH^− ions at −0.1V: BQ+2e^−+2H2O→HQ+2OH^− This reduction reaction increased the pH at the electrode interface.

[4] = target: Green Fluorescent Protein (GFP) (Aequorea victoria, UniProt P42212); assay: Fluorescence intensity of GFP after incubation with benzoquinones (protein stability); format: biochemical; details: 0.5 mM benzoquinone, phosphate buffered saline, 30 min
From the text: Para-benzoquinones and ortho-benzoquinones (compounds 2, 4, 6, and 9 in FIG. 31) are susceptible to nucleophilic attack at the double bond of the ring (positions 2, 3, 5 and 6 in structure 2 of FIG. 31, positions 3, 4, 5 and 6 in structure 4 of FIG. 31, and positions 2 and 3 in structure 6 of FIG. 31). Introducing substituents at some or all of those positions can mitigate the problem of nucleophilic attack. For example, 1,4-benzoquinone (structure 2 in FIG. 31, where R1, R2, R3 and R4 are H) undergoes Michael addition reaction with amino groups of proteins (Loomis et al., Phytochemistry, 5, 423, (1966) and U.S. Pat. No. 6,753,312 B2). […] Fluorescence intensity of Green Fluorescent Protein (GFP) was measured after incubation with three different benzoquinones in phosphate buffered saline for 30 min (concentration of benzoquinones was 0.5 mM). The difference in fluorescence intensity indicates the varied effect that the different substitutions in benzoquinones have on the stability of GFP. Fluorescence intensity of GFP is indicative of its structural integrity. Losses in fluorescence intensity usually indicate loss of its tertiary structure (protein denaturation) (Yin D. X., Zhu L., Schimke R. T. Anal. Biochem. 1996, 235:195-201).

SMILES: Cc1cc(O)ccc1O [2-methyl-1,4-dihydroquinone]
solution pH after current-driven oxidation ([1]; 50 microamps for 30 second, diluted phosphate buffer pH 7.4, 0.1M Na2SO4, ITO working electrode): 5.5
time for pH to recover to neutral value after current was turned off ([1]; diluted phosphate buffer pH 7.4, 0.1M Na2SO4): ≤ 50 seconds

electrode potential at which it oxidizes [2]: less than 0.5 V
SMILES: O=C1O[C@H]([C@@H](O)CO)C(O)=C1O [ascorbic acid]

SMILES: O=C1C=CC(=O)C=C1 [unsubstituted benzoquinone, 1,4-benzoquinone]
potential of reduction producing OH- ions [3]: −0.1 V
loss in GFP fluorescence intensity after incubation [4]: 25%
